Measurements from paper PMC8940841, “A metabolically stable PET tracer for imaging synaptic vesicle protein 2A: synthesis and preclinical characterization of [^18F]SDM-16” (European Journal of Nuclear Medicine and Molecular Imaging, 2021).

How the values were obtained:
[1] = target: SV2A (Macaca mulatta, UniProt H9EQH8); experiment: LEV blocking and displacement PET scans, Lassen plot; type: in vivo, rhesus monkeys (Macaca mulatta); set-up: from tissue; host or cells: brain of living rhesus monkeys (in vivo PET); conditions: for VT (blocking): LEV 30 mg/kg i.v.
Sequence of SV2A (H9EQH8 1-742): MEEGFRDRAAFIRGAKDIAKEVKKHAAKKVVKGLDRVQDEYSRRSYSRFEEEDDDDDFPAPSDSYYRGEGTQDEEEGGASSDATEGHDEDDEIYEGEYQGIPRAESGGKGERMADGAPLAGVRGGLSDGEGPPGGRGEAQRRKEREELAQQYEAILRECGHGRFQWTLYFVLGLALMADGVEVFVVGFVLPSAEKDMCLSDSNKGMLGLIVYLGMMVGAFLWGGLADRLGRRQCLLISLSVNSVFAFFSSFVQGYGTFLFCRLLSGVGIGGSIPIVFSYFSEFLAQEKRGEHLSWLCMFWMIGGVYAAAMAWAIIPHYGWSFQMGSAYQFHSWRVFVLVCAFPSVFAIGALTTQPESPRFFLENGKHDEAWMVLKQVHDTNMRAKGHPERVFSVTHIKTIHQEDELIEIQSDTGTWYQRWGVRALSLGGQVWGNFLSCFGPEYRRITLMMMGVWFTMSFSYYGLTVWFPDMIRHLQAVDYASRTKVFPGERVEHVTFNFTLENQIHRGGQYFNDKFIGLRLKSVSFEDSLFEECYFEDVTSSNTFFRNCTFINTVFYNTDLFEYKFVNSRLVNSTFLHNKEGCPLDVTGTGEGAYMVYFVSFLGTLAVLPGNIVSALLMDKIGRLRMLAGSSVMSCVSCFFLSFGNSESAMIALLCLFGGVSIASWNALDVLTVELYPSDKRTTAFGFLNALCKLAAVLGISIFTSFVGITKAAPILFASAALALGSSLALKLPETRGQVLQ
Excerpt: Four monkeys were studied.
To examine the in vivo binding specificity, SV2A occupancy, and the extent of nonspecific binding in the monkey brain, we performed the Lassen plot analysis using data from the two baseline scans and one blocking scan in the same monkey.

[2] = Radiation dosimetry from whole-body PET biodistribution; type: in vivo, rhesus monkeys; conditions: for maximum permissible single-study dosage: urinary bladder wall critical organ, 21 CFR 361.1
Procedure: Two whole-body biodistribution studies were performed in two rhesus monkeys (9.4 kg female and 17.0 kg male) to estimate human organ radiation dosimetry. Scans were carried out on a Biograph mCT (hybrid PET/CT, Siemens Medical Systems, Knoxville, TN) scanner following i.v. injections of 187.6 MBq (5.1 mCi) and 173.9 MBq (4.7 mCi) [^18F]SDM-16, and mass doses of 0.27 µg and 0.24 µg at time of injection, respectively. Monkeys were scanned for about 4 h in a sequence of 22–24 passes from top of the head to the mid-thigh. Scans were reconstructed and visually inspected for organ activity concentrations exceeding background level. The organs included were the brain, heart, liver, gall bladder, spleen, kidneys, and urinary bladder contents. Regions of interest were delineated on these organs, and mean activity values were computed to form TACs.
Within-pass decay correction was removed to reflect the actual activity in each organ, and cumulative activity (Bq^.h/cm^3) computed by integration of the data from the scan. The tail portions beyond the end of the scan were extrapolated assuming only physical decay of the tracer. These values were multiplied by the organ volumes of a standard 55-kg adult female reference and 70-kg adult male mathematical phantom, and then normalized to injected activity to obtain organ residence times (N, h). Final values were then entered into the OLINDA software to obtain absorbed doses in all organs, which were computed with different voiding assumptions.

Cc1nccn1CN1C[C@@H](c2cc(F)cc([18F])c2)CC1=O [[^18F]SDM-16, (R)-4-(3-fluoro-5-(fluoro-^18F)phenyl)-1-((2-methyl-1H-imidazol-1-yl)methyl)pyrrolidin-2-one]
VT (blocking) ([1]; Amygdala): 4.5 mL/cm^3
VT (blocking) ([1]; Brainstem): 4.5 mL/cm^3
VT (blocking) ([1]; Centrum semiovale): 3.4 mL/cm^3
VT (blocking) ([1]; Cerebellum): 6.6 mL/cm^3
VT (blocking) ([1]; Cingulate cortex): 10.4 mL/cm^3
VT (blocking) ([1]; Frontal cortex): 9.5 mL/cm^3
VT (blocking) ([1]; Globus pallidus): 6.9 mL/cm^3
VT (blocking) ([1]; Hippocampus): 5.9 mL/cm^3
VT (blocking) ([1]; Insular cortex): 10.3 mL/cm^3
reduction of tracer uptake in LEV displacement ([1]; LEV 30 mg/kg i.v. at 120 min p.i., averaged from 5 brain regions, SUV at 4 h p.i. vs 180 min baseline): 58 ± 8%
VT (blocking) ([1]; Nucleus accumbens): 10.5 mL/cm^3
VT (blocking) ([1]; Occipital cortex): 8.3 mL/cm^3
VT (blocking) ([1]; Temporal cortex): 8.6 mL/cm^3
BPND in the LEV blocking scan ([1]; cingulate cortex and nucleus accumbens, 79% SV2A occupied by LEV): up to 2.11
reduction of tracer uptake in gray matter by pre-blocking ([1]; preinjected LEV 30 mg/kg i.v., normalized terminal SUV): 57 ± 10%
total ED of a single-study dosage ([2]; 185 MBq (5 mCi)): 3.9 mSv
mean organ radiation dose estimate ([2]; Adrenals, adult female phantom): 0.0157 mGv/MBq
mean organ radiation dose estimate ([2]; Adrenals, adult male phantom): 0.0135 mGv/MBq
mean organ radiation dose estimate ([2]; Brain, adult female phantom): 0.1032 mGv/MBq
mean organ radiation dose estimate ([2]; Brain, adult male phantom): 0.0732 mGv/MBq
mean organ radiation dose estimate ([2]; Breasts, adult female phantom): 0.0087 mGv/MBq
mean organ radiation dose estimate ([2]; Breasts, adult male phantom): 0.0073 mGv/MBq
average residence time N ([2]; Gall Bladder, Female): 0.015 h
average residence time N ([2]; Gall Bladder, Male): 0.021 h
mean organ radiation dose estimate ([2]; Gallbladder Wall, adult female phantom): 0.0441 mGv/MBq
mean organ radiation dose estimate ([2]; Gallbladder Wall, adult male phantom): 0.0484 mGv/MBq
mean organ radiation dose estimate ([2]; Heart Wall, adult female phantom): 0.0158 mGv/MBq
mean organ radiation dose estimate ([2]; Heart Wall, adult male phantom): 0.0137 mGv/MBq
average residence time N ([2]; Heart, Female): 0.015 h
average residence time N ([2]; Heart, Male): 0.017 h
mean organ radiation dose estimate ([2]; Kidneys, adult female phantom): 0.0454 mGv/MBq
mean organ radiation dose estimate ([2]; Kidneys, adult male phantom): 0.0478 mGv/MBq
mean organ radiation dose estimate ([2]; LLI Wall, adult female phantom): 0.0145 mGv/MBq
mean organ radiation dose estimate ([2]; LLI Wall, adult male phantom): 0.0114 mGv/MBq
mean organ radiation dose estimate ([2]; Liver, adult female phantom): 0.0538 mGv/MBq
mean organ radiation dose estimate ([2]; Liver, adult male phantom): 0.0454 mGv/MBq
mean organ radiation dose estimate ([2]; Lungs, adult female phantom): 0.0116 mGv/MBq
mean organ radiation dose estimate ([2]; Lungs, adult male phantom): 0.0096 mGv/MBq
mean organ radiation dose estimate ([2]; Muscle, adult female phantom): 0.0110 mGv/MBq
mean organ radiation dose estimate ([2]; Muscle, adult male phantom): 0.0093 mGv/MBq
mean organ radiation dose estimate ([2]; Osteogenic Cells, adult female phantom): 0.0188 mGv/MBq
mean organ radiation dose estimate ([2]; Osteogenic Cells, adult male phantom): 0.0147 mGv/MBq
mean organ radiation dose estimate ([2]; Ovaries, adult female phantom): 0.0147 mGv/MBq
mean organ radiation dose estimate ([2]; Pancreas, adult female phantom): 0.0154 mGv/MBq
mean organ radiation dose estimate ([2]; Pancreas, adult male phantom): 0.0134 mGv/MBq
mean organ radiation dose estimate ([2]; Red Marrow, adult female phantom): 0.0120 mGv/MBq
mean organ radiation dose estimate ([2]; Red Marrow, adult male phantom): 0.0098 mGv/MBq
average residence time N ([2]; Remainder, Female): 1.504 h
average residence time N ([2]; Remainder, Male): 1.608 h
mean organ radiation dose estimate ([2]; Skin, adult female phantom): 0.0087 mGv/MBq
mean organ radiation dose estimate ([2]; Skin, adult male phantom): 0.0073 mGv/MBq
mean organ radiation dose estimate ([2]; Small Intestine, adult female phantom): 0.0130 mGv/MBq
mean organ radiation dose estimate ([2]; Small Intestine, adult male phantom): 0.0116 mGv/MBq
mean organ radiation dose estimate ([2]; Spleen, adult female phantom): 0.0122 mGv/MBq
mean organ radiation dose estimate ([2]; Spleen, adult male phantom): 0.0104 mGv/MBq
mean organ radiation dose estimate ([2]; Stomach Wall, adult female phantom): 0.0125 mGv/MBq
mean organ radiation dose estimate ([2]; Stomach Wall, adult male phantom): 0.0107 mGv/MBq
average residence time N ([2]; Sum, Female): 2.621 h
average residence time N ([2]; Sum, Male): 2.621 h
mean organ radiation dose estimate ([2]; Testes, adult male phantom): 0.0090 mGv/MBq
mean organ radiation dose estimate ([2]; Thymus, adult female phantom): 0.0107 mGv/MBq
mean organ radiation dose estimate ([2]; Thymus, adult male phantom): 0.0089 mGv/MBq
mean organ radiation dose estimate ([2]; Thyroid, adult female phantom): 0.0101 mGv/MBq
mean organ radiation dose estimate ([2]; Thyroid, adult male phantom): 0.0098 mGv/MBq
mean organ radiation dose estimate ([2]; Total Body, adult female phantom): 0.0146 mGv/MBq
mean organ radiation dose estimate ([2]; Total Body, adult male phantom): 0.0119 mGv/MBq
mean organ radiation dose estimate ([2]; ULI Wall, adult female phantom): 0.0141 mGv/MBq
mean organ radiation dose estimate ([2]; ULI Wall, adult male phantom): 0.0119 mGv/MBq
mean organ radiation dose estimate ([2]; Urinary Bladder Wall, adult female phantom): 0.1368 mGv/MBq
mean organ radiation dose estimate ([2]; Urinary Bladder Wall, adult male phantom): 0.0762 mGv/MBq
average residence time N ([2]; Urinary Bladder, Female): 0.193 h
average residence time N ([2]; Urinary Bladder, Male): 0.143 h
mean organ radiation dose estimate ([2]; Uterus, adult female phantom): 0.0180 mGv/MBq
Effective Dose ([2]; adult female phantom): 0.0211 mGv/MBq
Effective Dose Equivalent ([2]; adult female phantom): 0.0316 mGv/MBq
Effective Dose ([2]; adult male phantom): 0.0156 mGv/MBq
Effective Dose Equivalent ([2]; adult male phantom): 0.0246 mGv/MBq
absorbed dose ([2]; brain, female): 0.1032 mGy/MBq
average residence time N ([2]; brain, female): 0.532 h
absorbed dose ([2]; brain, male): 0.0732 mGy/MBq
average residence time N ([2]; brain, male): 0.430 h
effective dose (ED) ([2]; female): 21.1 µSv/MBq
maximum permissible single-study dosage ([2]; female): 365.6 MBq
absorbed dose ([2]; gallbladder wall, female): 0.0441 mGy/MBq
absorbed dose ([2]; gallbladder wall, male): 0.0484 mGy/MBq
absorbed dose ([2]; kidneys, female): 0.0454 mGy/MBq
average residence time N ([2]; kidneys, female): 0.057 h
absorbed dose ([2]; kidneys, male): 0.0478 mGy/MBq
average residence time N ([2]; kidneys, male): 0.067 h
absorbed dose ([2]; liver, female): 0.0538 mGy/MBq
average residence time N ([2]; liver, female): 0.305 h
absorbed dose ([2]; liver, male): 0.0454 mGy/MBq
average residence time N ([2]; liver, male): 0.335 h
effective dose (ED) ([2]; male): 15.6 µSv/MBq
maximum permissible single-study dosage ([2]; male): 656.0 MBq
absorbed dose ([2]; urinary bladder wall, female): 0.1368 mGy/MBq
absorbed dose ([2]; urinary bladder wall, male): 0.0762 mGy/MBq
